Data reported in patent US7794761B2, “Methods for inducing anti-anxiety and calming effects in animals and humans” (Seroctin Research & Technology, Inc., priority 2000, dated 2010).

System: montane vole, Microtus montanus
Experiment: Uterine weight response in female montane voles after intraperitoneal injection
Format: in vivo
Conditions: i.p. 5 mcg/day for three days; for Average Uterine Weight: sacrificed 24 hours after last injection, control 15.2 ± 2.4
Procedure: Female montane voles, Microtis montanus, received intra peritoneal injections of representative compounds belonging to Formulas I, II and III for three consecutive days and sacrificed twenty-four (24) hours after the last injection to examine uterine weight response. To assess the properties of each representative compound, pure ones made by chemical means (University of Utah Department of Chemistry, Salt Lake City, Utah) were prepared specifically for this test. All compounds were injected at a dose level of 5 mcg/day, dissolved in five percent (5%) propylene glycol for a total injection volume of 0.5 ml. Control animals received 0.5 ml of five percent (5%) propylene glycol only. All voles were 4-5 weeks old and weighed 25-29 g.

| SMILES | Average Uterine Weight [mg] | increase in uterine weight over control group [%] |
| --- | --- | --- |
| COc1ccc(O)c(N)c1 [2-amino-4-methoxyphenol] | 22.2 ± 3.2 |  |
| COc1ccc(N)c(O)c1 [2-amino-5-methoxyphenol] | 21.8 ± 3.5 |  |
| CCOc1ccc(NC(C)=O)c(O)c1 [2-hydroxy-4-ethoxyacetanilide] | 22.2 ± 3.9 |  |
| COc1ccc(NC(C)=O)c(O)c1 [2-hydroxy-4-methoxyacetanilide] | 23.1 ± 2.7 |  |
| COc1ccc(O)c(NC(C)=O)c1 [2-hydroxy-5-methoxyacetanilide] | 21.1 ± 4.4 |  |
| COc1ccc2oc(=O)[nH]c2c1 [5-methoxy-2-benzoxazolinone] | 20.0 ± 4.7 | 32 |
| COc1ccc2[nH]c(=O)oc2c1 [6-methoxy-2-benzoxazolinone] | 27.7 ± 5.6 | 82 |
